# Measured values from paper PMC11702208 (RSC Advances, 2025).
# Values joined by “and” are separate entries in the source; they are usually repeats but may differ in a detail not shown here. Equal entries are not always repeated.
# Experiments:
# MOLT-4 = experiment: NCI cytotoxicity screen; assay type: cell-based, human; conditions: 10.0 μM one dose
# RPMI-8226 = experiment: NCI cytotoxicity screen; assay type: cell-based, human; conditions: 10.0 μM one dose
# EKVX = experiment: NCI cytotoxicity screen; assay type: cell-based, human; conditions: 10.0 μM one dose
# HOP-92 = experiment: NCI cytotoxicity screen; assay type: cell-based, human; conditions: 10.0 μM one dose
# NCI-H226 = experiment: NCI cytotoxicity screen; assay type: cell-based, human; conditions: 10.0 μM one dose
# NCI-H460 = experiment: NCI cytotoxicity screen; assay type: cell-based, human; conditions: 10.0 μM one dose
# HCC-2998 = experiment: NCI cytotoxicity screen; assay type: cell-based, human; conditions: 10.0 μM one dose; HCC-2998
# HT29 = experiment: NCI cytotoxicity screen; assay type: cell-based, human; conditions: 10.0 μM one dose; HT-29
# SW-620 = experiment: NCI cytotoxicity screen; assay type: cell-based, human; conditions: 10.0 μM one dose
# SF-268 = experiment: NCI cytotoxicity screen; assay type: cell-based, human; conditions: 10.0 μM one dose
# U251 = experiment: NCI cytotoxicity screen; assay type: cell-based, human; conditions: 10.0 μM one dose; U-251
# LOX IMVI = experiment: NCI cytotoxicity screen; assay type: cell-based, human; conditions: 10.0 μM one dose
# SK-MEL-28 = experiment: NCI cytotoxicity screen; assay type: cell-based, human; conditions: 10.0 μM one dose
# IGROV1 = experiment: NCI cytotoxicity screen; assay type: cell-based, human; conditions: 10.0 μM one dose; IGROV1
# OVCAR-5 = experiment: NCI cytotoxicity screen; assay type: cell-based, human; conditions: 10.0 μM one dose; IGROV-5
# SK-OV-3 = experiment: NCI cytotoxicity screen; assay type: cell-based, human; conditions: 10.0 μM one dose
# MCF7 = experiment: NCI cytotoxicity screen; assay type: cell-based, human; conditions: 10.0 μM one dose; MCF-7
# COX-2 = biological target: T1, COX-2 (Ovis aries, UniProt P79208); experiment: Colorimetric COX; assay type: biochemical, ovine
# T1 sequence (P79208 17-603): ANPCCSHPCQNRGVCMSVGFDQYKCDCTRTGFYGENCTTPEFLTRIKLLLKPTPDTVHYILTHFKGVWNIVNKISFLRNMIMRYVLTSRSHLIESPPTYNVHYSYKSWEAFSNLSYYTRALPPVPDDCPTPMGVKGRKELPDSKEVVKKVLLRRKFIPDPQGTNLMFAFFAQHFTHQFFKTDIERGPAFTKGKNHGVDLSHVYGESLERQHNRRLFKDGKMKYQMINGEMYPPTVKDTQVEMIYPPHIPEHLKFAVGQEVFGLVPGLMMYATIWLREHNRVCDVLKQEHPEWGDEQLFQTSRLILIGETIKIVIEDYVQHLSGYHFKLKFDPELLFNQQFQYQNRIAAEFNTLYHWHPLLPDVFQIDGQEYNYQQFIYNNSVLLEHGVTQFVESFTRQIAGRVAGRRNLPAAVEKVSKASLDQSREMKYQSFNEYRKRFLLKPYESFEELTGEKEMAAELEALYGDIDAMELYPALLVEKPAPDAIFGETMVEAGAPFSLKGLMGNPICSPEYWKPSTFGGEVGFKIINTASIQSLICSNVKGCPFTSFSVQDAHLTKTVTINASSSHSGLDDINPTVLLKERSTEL
# EGFR = EGFR (Homo sapiens, UniProt P00533); experiment: biochemical; conditions: IC50 EGFR inhibition
# Sequence of EGFR (P00533 25-1210): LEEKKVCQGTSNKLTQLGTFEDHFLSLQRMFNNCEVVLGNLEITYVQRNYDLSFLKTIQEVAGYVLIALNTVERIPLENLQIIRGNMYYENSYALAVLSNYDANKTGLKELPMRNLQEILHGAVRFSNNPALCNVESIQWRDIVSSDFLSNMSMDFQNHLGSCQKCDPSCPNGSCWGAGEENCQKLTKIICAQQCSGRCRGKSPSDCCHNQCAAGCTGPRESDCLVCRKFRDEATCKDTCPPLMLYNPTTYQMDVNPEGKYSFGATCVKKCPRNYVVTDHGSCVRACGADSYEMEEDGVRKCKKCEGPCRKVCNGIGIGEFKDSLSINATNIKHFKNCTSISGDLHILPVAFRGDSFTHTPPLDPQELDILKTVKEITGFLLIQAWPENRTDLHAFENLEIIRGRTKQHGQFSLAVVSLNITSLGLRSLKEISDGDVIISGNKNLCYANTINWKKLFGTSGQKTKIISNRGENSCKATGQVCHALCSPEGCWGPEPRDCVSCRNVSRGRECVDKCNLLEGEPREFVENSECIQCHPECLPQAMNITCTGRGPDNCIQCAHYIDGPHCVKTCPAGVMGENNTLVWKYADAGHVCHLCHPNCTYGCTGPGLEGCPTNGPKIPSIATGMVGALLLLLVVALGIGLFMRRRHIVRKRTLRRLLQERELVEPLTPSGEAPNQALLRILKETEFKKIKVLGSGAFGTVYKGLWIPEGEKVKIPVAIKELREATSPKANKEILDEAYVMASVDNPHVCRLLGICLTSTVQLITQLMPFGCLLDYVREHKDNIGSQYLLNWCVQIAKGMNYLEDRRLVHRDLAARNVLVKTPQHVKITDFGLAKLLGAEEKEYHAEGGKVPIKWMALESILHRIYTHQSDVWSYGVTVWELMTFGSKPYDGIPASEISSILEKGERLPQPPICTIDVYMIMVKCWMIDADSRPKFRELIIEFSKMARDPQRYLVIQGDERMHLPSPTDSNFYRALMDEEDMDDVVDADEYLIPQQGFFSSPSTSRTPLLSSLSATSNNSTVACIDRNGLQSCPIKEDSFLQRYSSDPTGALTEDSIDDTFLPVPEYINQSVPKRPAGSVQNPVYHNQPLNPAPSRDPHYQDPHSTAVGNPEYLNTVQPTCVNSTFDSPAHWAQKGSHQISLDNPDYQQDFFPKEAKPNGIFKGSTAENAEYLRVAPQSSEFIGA
# HER2 = HER2 (Homo sapiens, UniProt P04626); experiment: HER2 tyrosine kinase assay; assay type: biochemical; conditions: IC50 HER2 inhibition
# Sequence of HER2 (P04626 23-1255): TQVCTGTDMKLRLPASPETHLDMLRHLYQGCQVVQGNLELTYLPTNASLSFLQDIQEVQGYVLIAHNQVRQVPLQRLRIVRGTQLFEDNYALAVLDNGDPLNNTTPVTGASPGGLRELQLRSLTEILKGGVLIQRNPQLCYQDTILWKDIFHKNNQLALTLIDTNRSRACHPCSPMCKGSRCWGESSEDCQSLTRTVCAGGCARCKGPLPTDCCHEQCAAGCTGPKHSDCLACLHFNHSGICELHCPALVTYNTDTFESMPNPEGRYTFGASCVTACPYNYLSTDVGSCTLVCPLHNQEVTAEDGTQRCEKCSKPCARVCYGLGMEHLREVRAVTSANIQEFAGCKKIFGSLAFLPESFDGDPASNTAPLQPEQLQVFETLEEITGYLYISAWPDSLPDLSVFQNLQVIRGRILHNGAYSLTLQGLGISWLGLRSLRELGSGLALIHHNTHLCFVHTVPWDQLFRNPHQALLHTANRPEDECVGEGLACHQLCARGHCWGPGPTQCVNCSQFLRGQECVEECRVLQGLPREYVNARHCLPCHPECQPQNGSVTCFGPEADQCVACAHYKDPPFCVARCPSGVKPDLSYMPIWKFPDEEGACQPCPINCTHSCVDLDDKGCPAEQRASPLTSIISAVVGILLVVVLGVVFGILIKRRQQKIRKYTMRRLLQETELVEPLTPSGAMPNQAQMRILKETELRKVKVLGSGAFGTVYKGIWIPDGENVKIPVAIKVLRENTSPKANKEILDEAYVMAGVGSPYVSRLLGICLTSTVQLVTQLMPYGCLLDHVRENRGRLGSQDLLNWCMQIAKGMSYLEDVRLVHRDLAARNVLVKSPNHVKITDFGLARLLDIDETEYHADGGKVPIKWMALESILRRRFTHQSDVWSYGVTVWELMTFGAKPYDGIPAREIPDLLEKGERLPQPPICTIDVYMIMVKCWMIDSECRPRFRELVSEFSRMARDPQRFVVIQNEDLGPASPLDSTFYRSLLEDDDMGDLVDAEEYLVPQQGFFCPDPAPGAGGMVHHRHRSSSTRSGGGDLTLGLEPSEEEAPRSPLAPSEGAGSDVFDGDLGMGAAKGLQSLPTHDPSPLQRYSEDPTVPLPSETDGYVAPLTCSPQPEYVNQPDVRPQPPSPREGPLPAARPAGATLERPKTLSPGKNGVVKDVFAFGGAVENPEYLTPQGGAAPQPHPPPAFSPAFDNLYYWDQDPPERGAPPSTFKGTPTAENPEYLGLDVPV
# CDK9 = CDK9 (Homo sapiens, UniProt P50750); experiment: biochemical; conditions: IC50 CDK9 inhibition
# Sequence of CDK9 (P50750 whole entry): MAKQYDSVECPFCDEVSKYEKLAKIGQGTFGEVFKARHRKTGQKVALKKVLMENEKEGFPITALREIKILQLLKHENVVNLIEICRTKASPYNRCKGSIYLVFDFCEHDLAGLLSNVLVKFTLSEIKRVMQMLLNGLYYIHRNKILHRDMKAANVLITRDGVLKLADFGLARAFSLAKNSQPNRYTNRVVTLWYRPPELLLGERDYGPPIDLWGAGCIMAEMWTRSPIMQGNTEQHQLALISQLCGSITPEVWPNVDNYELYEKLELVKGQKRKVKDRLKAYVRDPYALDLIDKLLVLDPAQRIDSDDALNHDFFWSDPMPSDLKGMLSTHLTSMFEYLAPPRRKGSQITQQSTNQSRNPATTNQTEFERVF
# Sequence of CDK9 (O60563 whole entry partner): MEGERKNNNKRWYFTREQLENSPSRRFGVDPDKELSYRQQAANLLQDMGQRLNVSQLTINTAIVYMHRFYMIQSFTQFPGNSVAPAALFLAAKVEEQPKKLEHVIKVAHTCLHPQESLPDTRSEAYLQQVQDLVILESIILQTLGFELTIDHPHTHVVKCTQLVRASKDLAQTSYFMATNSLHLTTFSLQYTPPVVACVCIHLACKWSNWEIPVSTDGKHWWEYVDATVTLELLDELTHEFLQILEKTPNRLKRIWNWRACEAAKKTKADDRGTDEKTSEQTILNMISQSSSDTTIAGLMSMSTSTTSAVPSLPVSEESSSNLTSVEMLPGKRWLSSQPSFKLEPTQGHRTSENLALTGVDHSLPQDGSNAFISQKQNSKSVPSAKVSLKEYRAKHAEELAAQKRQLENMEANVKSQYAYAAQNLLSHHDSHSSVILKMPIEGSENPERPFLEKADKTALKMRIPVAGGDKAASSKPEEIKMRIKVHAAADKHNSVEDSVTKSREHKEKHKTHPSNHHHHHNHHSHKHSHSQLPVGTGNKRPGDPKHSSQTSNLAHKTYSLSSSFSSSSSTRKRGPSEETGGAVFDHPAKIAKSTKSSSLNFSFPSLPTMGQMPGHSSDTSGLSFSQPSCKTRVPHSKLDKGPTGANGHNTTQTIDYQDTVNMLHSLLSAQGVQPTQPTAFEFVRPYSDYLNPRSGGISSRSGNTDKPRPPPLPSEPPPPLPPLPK
# MOLT4 cells [1] = experiment: Cell cycle analysis; assay type: cell-based; conditions: compound at IC50 concentration
# MOLT4 cells [2] = experiment: Annexin V-FITC/PI apoptosis assay; assay type: cell-based
# HL-60(TB) = conditions: 10.0 μM one dose
# K-562 = conditions: 10.0 μM one dose
smiles,measurement,setting,value
"NS(=O)(=O)c1ccc(Cn2c(SCC(=O)NN=Cc3ccccc3O)nc3ccccc3c2=O)cc1 [Compound 6, 4-((2-((2-(2-(2-Hydroxybenzylidene)hydrazineyl)-2-oxoethyl)thio)-4-oxoquinazolin-3(4H)-yl)methyl)benzenesulfonamide]",GI %,MOLT-4,80%
same,GI %,RPMI-8226,51%
same,GI %,EKVX,40%
same,GI %,HOP-92,46%
same,GI %,NCI-H226,43%
same,GI %,NCI-H460,51%
same,GI %,HCC-2998,50%
same,GI %,HT29,14%
same,GI %,SW-620,40%
same,GI %,SF-268,62%
same,GI %,U251,57%
same,GI %,LOX IMVI,84%
same,GI %,SK-MEL-28,43%
same,GI %,IGROV1,38%
same,GI %,OVCAR-5,32%
same,GI %,SK-OV-3,37%
same,GI %,MCF7,50%
same,IC50,COX-2,4470 ± 90 nM
same,IC50,EGFR,51.5 nM
same,IC50,HER2,44.1 nM
same,IC50,CDK9,96.1 nM
same,%G0-G1,MOLT4 cells [1],89.04%
same,%G2-M,MOLT4 cells [1],1.40%
same,Apoptosis Early,MOLT4 cells [2],19.2% and 19.22%
same,Apoptosis Total,MOLT4 cells [2],35.06%
same,Necrosis,MOLT4 cells [2],3.23%
same,GI %,HL-60(TB),60%
same,GI %,K-562,64%
